# According to patent US10562912B2 (C&C Research Laboratories, priority 2013, dated 2020):
# Experiments:
# Type in all cases: cell-based
# [1] = system: HEL92.1.7; experiment: Cell growth inhibition assay, blood cancer cell line HEL92.1.7; details: Homo sapiens, HEL 92.1.7, HEL92.1.7 blood cancer cell line
# Method: The inhibitory effects of the compounds of the present invention against the growth of cancer cells were evaluated as shown below. The cancer cell lines including stomach cancer cell line (AGS), breast cancer cell lines (MDA-MB-231, MDA-MB-468, and BT-549), prostate cancer cell lines (LNCaP and DU-145), colon cancer cell line (HCT116), ovarian cancer cell line (SW626), liver cancer cell line (Hep3B), kidney cancer cell line (ACHN), lung cancer cell line (NCI-H23) and blood cancer cell lines (HEL92.1.7 and U266) were cultured under the protocol provided by each supplier. A medium supplemented with 10 ng/mL of IL-6 was used for LNCaP, a prostate cancer cell line, when treated with a drug. Each type of cells to be used in experiments were sub-cultured in a 96-well plate by counting the exact number of cells using Tali™ Image-based Cytometer (Life Technologies). In a 96-well plate, AGS, HCT116, and DU-145 were employed with 3,000 cells/well; NCI-H23, SW626, Hep3B, ACHN, BT-549, MDA-MB-231, HEL92.1.7, and U266 were employed with 5,000 cells/well; and LNCaP and MDA-MB-468 were employed with 10,000 cells/well. The cells were treated with the compounds listed in Examples which were diluted in various concentrations. Upon completion of the compounds treatment, AGS, HCT116, SW626, DU145, NCI-H23, Hep3B, ACHN, BT-549, LNCaP, HEL92.1.7, and U266 cells were cultured at 37° C. under 5% CO2 for from 72 to 96 hours, and MDA-MB-231 and MDA-MB-468 cells were cultured at 37° C. in air for from 72 to 96 hours. Subsequently, the cells were observed under microscope and drug precipitation and particular findings were investigated and recorded. And then, the 96-well plate was placed at room temperature for 30 minutes, added with 20 μL/well of CellTiter-Glo solution (Cat No. G7573, Promega) and shaken for 10 minutes, followed by being subjected to the measurement using PHERAstar™ microplate reader (BMG LABTECH) according to the supplier's general luminometer protocol. Wells where only culture liquid added without cell plating were used as a negative control, whereas wells where culture liquid containing 0.1% DMSO instead of the compounds listed in Examples were used as a positive control.
# [2] = system: DU-145; experiment: Cell growth inhibition assay, prostate cancer cell line DU-145; details: Homo sapiens, DU-145 prostate cancer cell line
# How it was run: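 Cells were seeded at 3,000/well (HCT116, DU-145) or 5,000/well (SW626 and the others) and exposed to serial compound dilutions for 72 to 96 h at 37 °C under 5% CO2. Viability was read as CellTiter-Glo luminescence against 0.1% DMSO and cell-free wells.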
# [3] = target: T1, STAT3 (Homo sapiens, UniProt P40763); experiment: STAT3 reporter gene assay (luciferase), LNCaP stable cell line (pSTAT3-TA-luc), IL-6 stimulation
# T1 construct: plasmid pSTAT3-TA-luc), which contains a stably operating STAT3 promoter; endogenous in cells
# T1 sequence (P40763 whole entry): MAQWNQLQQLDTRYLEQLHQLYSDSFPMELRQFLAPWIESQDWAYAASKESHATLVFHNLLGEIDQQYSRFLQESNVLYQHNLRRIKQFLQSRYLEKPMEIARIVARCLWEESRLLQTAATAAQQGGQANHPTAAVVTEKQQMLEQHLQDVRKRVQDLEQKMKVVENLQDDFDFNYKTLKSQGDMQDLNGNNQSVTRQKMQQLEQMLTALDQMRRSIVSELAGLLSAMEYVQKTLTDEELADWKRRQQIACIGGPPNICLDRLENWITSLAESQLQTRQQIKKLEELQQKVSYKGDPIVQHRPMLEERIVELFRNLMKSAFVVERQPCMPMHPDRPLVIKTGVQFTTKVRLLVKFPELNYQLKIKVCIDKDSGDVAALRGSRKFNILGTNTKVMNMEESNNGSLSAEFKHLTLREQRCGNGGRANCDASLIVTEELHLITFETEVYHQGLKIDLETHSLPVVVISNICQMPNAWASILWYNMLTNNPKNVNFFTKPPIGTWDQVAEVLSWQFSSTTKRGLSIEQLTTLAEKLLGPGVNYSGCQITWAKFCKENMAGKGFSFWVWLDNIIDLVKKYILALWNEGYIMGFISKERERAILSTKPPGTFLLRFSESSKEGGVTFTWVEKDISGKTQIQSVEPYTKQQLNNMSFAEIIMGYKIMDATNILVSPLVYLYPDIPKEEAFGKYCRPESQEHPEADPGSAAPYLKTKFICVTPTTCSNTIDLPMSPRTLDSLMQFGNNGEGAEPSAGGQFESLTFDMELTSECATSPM
# How it was run: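 LNCaP cells stably carrying pSTAT3-TA-luc, in RPMI1640 with 3% DCC-FBS, were treated with compound and then stimulated with 10 ng/mL IL-6 for 24–48 h at 37 °C. Luciferase activity was measured in lysates. A parallel plate measured viability by CellTiter-Glo, with stimulated 0.1% DMSO wells as the positive control.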
# [4] = system: LNCaP; experiment: Cell growth inhibition assay, prostate cancer cell line LNCaP (medium with 10 ng/mL IL-6); details: Homo sapiens, medium supplemented with 10 ng/mL of IL-6, 10,000 cells/well
SMILES,IC50 [1],IC50 [2],IC50 [3],IC50 [4]
"Cn1cc(Cc2cc(OC(F)(F)C(F)F)cc(C(C)(C)c3cc(Cl)cc(NC(=O)c4cc5cc(NS(C)(=O)=O)ccc5s4)c3)c2)cn1 [Example 138, N-(3-chloro-5-(2-(3-((1-methyl-1H-pyrazol-4-yl)methyl)-5-(1,1,2,2-tetrafluoroethoxy)phenyl)propan-2-yl)phenyl)-5-(methylsulfonamido) benzo[b]thiophene-2-carboxamide]",0.26 µM,0.018 µM,0.02 µM,0.054 µM
"CC(C)Oc1cc(OC(F)(F)F)cc(C(C)(C)c2cc(Cl)cc(NC(=O)c3cc4cc(NS(=O)(=O)CCN(C)O)ccc4s3)c2)c1 [Example 210, N-(3-chloro-5-(2-(3-isopropoxy-5-(trifluoromethoxy)phenyl)propan-2-yl)phenyl)-5-((2-(hydroxy(methyl)amino)ethyl)sulfonamido)benzo[b]thiophene-2-carboxamide]",0.57 µM,0.073 µM,0.14 µM,0.28 µM
"Cn1ccc(C(C)(C)c2cc(Cl)cc(NC(=O)c3cc4cc(NS(C)(=O)=O)ccc4s3)c2)c1 [Example 168, N-(3-chloro-5-(2-(1-methyl-1H-pyrrol-3-yl)propan-2-yl)phenyl)-5-(methylsulfonamido)benzo[b]thiophene-2-carboxamide]",0.39 µM,0.13 µM,0.13 µM,0.096 µM
"CC(C)Oc1cc(OC(F)(F)F)cc(C2(c3cc(Cl)cc(NC(=O)c4cc5cc(N(C)S(C)(=O)=O)c(F)cc5s4)c3)CC2)c1 [Example 430, N-(3-chloro-5-(1-(3-isopropoxy-5-(trifluoromethoxy)phenyl)cyclopropyl)phenyl)-6-fluoro-5-(N-methylmethylsulfonamido)benzo[b]thiophene-2-carboxamide]",0.014 µM,0.006 µM,0.012 µM,0.006 µM
"CS(=O)(=O)Nc1ccc2sc(C(=O)Nc3cc(Br)cc(S(=O)(=O)N4CCC(F)(F)CC4)c3)cc2c1 [Example 420, N-(3-bromo-5-((4,4-difluoropiperidin-1-yl)sulfonyl)phenyl)-5-(methylsulfonamido)benzo[b]thiophene-2-carboxamide]",2.4 µM,0.95 µM,0.82 µM,1.7 µM
"COc1cc(OC(F)(F)F)cc(-c2cc(Cl)cc(NC(=O)c3cc4cc(N(C)S(C)(=O)=O)c(F)cc4s3)c2)c1 [Example 326, N-(5-chloro-3′-methoxy-5′-(trifluoromethoxy)-[1,1′-biphenyl]-3-yl)-6-fluoro-5-(N-methylmethylsulfonamido)benzo[b]thiophene-2-carboxamide]",0.26 µM,0.064 µM,0.1 µM,0.14 µM
"CC(C)Oc1cc(N2CCCC2)cc(C(C)(C)c2cc(Cl)cc(NC(=O)c3cc4cc(NS(C)(=O)=O)ccc4s3)c2)c1 [Example 146, N-(3-chloro-5-(2-(3-isopropoxy-5-(pyrrolidin-1-yl)phenyl)propan-2-yl)phenyl)-5-(methylsulfonamido)benzo[b]thiophene-2-carboxamide]",0.32 µM,0.019 µM,0.073 µM,0.022 µM
"CC(C)(c1cc(Br)cc(NC(=O)c2cc3cc(NS(C)(=O)=O)ncc3s2)c1)c1cc(OC(F)(F)F)cc(OC(F)(F)C(F)F)c1 [Example 89, N-(3-bromo-5-(2-(3-(1,1,2,2-tetrafluoroethoxy)-5-(trifluoromethoxy)phenyl)propan-2-yl)phenyl)-5-(methylsulfonamido)thieno[2,3-c]pyridine-2-carboxamide]",0.22 µM,0.048 µM,0.047 µM,0.07 µM
"CC(C)Oc1cc(OC(F)(F)F)cc(C(C)(C)c2cc(Cl)cc(NC(=O)c3cc4c(F)c(NS(C)(=O)=O)ccc4s3)c2)c1 [Example 93, N-(3-chloro-5-(2-(3-isopropoxy-5-(trifluoromethoxy)phenyl)propan-2-yl)phenyl)-4-fluoro-5-(methylsulfonamido)benzo[b]thiophene-2-carboxamide]",0.12 µM,0.021 µM,0.091 µM,0.055 µM
"CC(C)Oc1cc(OC(F)(F)F)cc(C2(c3cc(Cl)cc(NC(=O)c4cc5cc(NS(C)(=O)=O)ccc5s4)c3)CC2)c1 [Example 431, N-(3-chloro-5-(1-(3-isopropoxy-5-(trifluoromethoxy)phenyl)cyclopropyl)phenyl)-5-(methylsulfonamido)benzo[b]thiophene-2-carboxamide]",0.007 µM,0.038 µM,0.053 µM,0.034 µM
"CC(C)Oc1cc(OC(F)(F)F)cc(C(C)(C)c2cc(Cl)cc(NC(=O)c3cc4c(N5CCOCC5)c(NS(C)(=O)=O)ccc4s3)c2)c1 [Example 66, N-(3-chloro-5-(2-(3-isopropoxy-5-(trifluoromethoxy)phenyl)propan-2-yl)phenyl)-5-(methylsulfonamido)-4-morpholinobenzo[b]thiophene-2-carboxamide]",> 1.1 µM,> 1.1 µM,> 10 µM,> 1.1 µM
"CC(C)Oc1cc(OC(F)(F)F)cc(C(C)(C)c2cc(Cl)cc(NC(=O)c3cc4cc(NS(=O)(=O)c5ccn(C)n5)ccc4s3)c2)c1 [Example 200, N-(3-chloro-5-(2-(3-isopropoxy-5-(trifluoromethoxy)phenyl)propan-2-yl)phenyl)-5-((1-methyl-1H-pyrazole)-3-sulfonamido)benzo[b]thiophene-2-carboxamide]",0.3 µM,0.19 µM,0.069 µM,0.28 µM
"CC(C)(c1cc(Cl)cc(NC(=O)c2cc3cc(NS(C)(=O)=O)ccc3s2)c1)c1cc(OCC(F)(F)F)cc(OC(F)(F)F)c1 [Example 88, N-(3-chloro-5-(2-(3-(2,2,2-trifluoroethoxy)-5-(trifluoromethoxy)phenyl)propan-2-yl)phenyl)-5-(methylsulfonamido)benzo[b]thiophene-2-carboxamide]",0.087 µM,0.008 µM,0.015 µM,0.024 µM
CC(C)Oc1cc(N2CC[N+](C)([O-])CC2)cc(C(C)(C)c2cc(Cl)cc(NC(=O)c3cc4cc(NS(C)(=O)=O)ccc4s3)c2)c1 [Example 144],> 1.1 µM,1 µM,5.2 µM,2.6 µM
"CC(C)(c1cc(Cl)cc(NC(=O)c2cc3cc(NS(C)(=O)=O)ccc3s2)c1)c1ccc(F)c(F)c1 [Example 162, N-(3-chloro-5-(2-(3,4-difluorophenyl)propan-2-yl)phenyl)-5-(methylsulfonamido)benzo[b]thiophene-2-carboxamide]",0.2 µM,0.052 µM,0.069 µM,0.064 µM
"CC(C)(c1cc(Cl)cc(NC(=O)c2cc3cc(NS(C)(=O)=O)ccc3s2)c1)n1ncccc1=O [Example 190, N-(3-chloro-5-(2-(6-oxopyridazin-1(6H)-yl)propan-2-yl)phenyl)-5-(methylsulfonamido)benzo[b]thiophene-2-carboxamide]",> 1.1 µM,> 1.1 µM,2.37 µM,> 1.1 µM
"CC(C)Oc1cc(-c2ccnn2C)cc(C(C)(C)c2cc(Cl)cc(NC(=O)c3cc4cc(NS(C)(=O)=O)ccc4s3)c2)c1 [Example 142, N-(3-chloro-5-(2-(3-isopropoxy-5-(1-methyl-1H-pyrazol-5-yl)phenyl)propan-2-yl)phenyl)-5-(methylsulfonamido)benzo[b]thiophene-2-carboxamide]",0.33 µM,0.09 µM,0.13 µM,0.33 µM
